Experiment [1] has as its target Myosin-IIIa (Homo sapiens) (UniProt Q8NEV4). Particulars: at 10 µM.
In experiment [2] the target is T1, Dual specificity mitogen-activated protein kinase kinase 5 (Homo sapiens) (UniProt Q13163).
T1 sequence (whole entry): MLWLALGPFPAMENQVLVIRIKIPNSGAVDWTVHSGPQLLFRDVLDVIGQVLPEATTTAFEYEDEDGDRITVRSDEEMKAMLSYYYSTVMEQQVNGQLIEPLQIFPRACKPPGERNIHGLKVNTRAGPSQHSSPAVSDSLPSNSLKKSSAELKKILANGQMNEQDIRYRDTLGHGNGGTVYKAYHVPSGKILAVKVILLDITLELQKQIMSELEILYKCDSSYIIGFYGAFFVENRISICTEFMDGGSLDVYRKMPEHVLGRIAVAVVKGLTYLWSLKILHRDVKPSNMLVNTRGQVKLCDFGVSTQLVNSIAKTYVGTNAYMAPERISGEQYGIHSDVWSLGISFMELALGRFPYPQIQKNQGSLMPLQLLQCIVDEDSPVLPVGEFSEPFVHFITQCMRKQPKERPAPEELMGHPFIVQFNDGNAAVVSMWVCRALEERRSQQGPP
Nature of the experiment: Selectivity interaction (KinomeScan (DiscoverX)) EUB0001079a MAP2K5. To be noted: at 1 µM.

In experiment [3] the target is T2, Protein arginine N-methyltransferase 9 (Homo sapiens) (UniProt Q6P2P2).
T2 sequence (whole entry): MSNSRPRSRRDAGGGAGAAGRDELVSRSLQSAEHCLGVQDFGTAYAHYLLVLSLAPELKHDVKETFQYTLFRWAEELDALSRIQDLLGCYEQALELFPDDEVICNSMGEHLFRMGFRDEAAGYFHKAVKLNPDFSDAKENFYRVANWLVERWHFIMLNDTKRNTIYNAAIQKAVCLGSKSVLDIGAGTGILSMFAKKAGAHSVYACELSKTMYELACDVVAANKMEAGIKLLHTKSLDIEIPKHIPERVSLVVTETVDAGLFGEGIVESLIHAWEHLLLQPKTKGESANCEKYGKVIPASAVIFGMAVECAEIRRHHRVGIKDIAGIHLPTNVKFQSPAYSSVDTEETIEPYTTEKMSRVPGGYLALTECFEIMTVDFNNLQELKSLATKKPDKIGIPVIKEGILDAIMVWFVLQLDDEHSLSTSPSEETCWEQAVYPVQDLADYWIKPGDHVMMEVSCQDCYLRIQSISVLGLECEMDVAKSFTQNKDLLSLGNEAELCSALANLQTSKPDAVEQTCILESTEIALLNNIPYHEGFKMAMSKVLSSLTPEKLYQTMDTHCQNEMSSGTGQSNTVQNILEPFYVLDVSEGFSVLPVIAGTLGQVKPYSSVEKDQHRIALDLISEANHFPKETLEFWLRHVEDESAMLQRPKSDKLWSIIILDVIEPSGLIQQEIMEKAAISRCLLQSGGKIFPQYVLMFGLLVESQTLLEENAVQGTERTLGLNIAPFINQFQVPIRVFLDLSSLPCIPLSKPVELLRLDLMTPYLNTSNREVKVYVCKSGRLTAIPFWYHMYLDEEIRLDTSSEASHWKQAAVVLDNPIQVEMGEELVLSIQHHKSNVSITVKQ
Kind of experiment: Selectivity interaction (Transferase panel (protein, RNA, and DNA methyltransferases. and EP300 (acetyltransferase))) EUB0000270b PRMT9.

In experiment [4] the test system is Tyrosine-protein kinase ABL1 (Homo sapiens), P00519 [F317L]. Kind of experiment: Selectivity interaction (KinomeScan (DiscoverX)) EUB0000045b ABL1. To be noted: at 1 µM.
The target in experiment [5] is Angiopoietin-1 receptor (Homo sapiens) (UniProt Q02763). Nature of the experiment: Selectivity interaction (KinomeScan (DiscoverX)) EUB0000607a TEK. To be noted: at 10 µM.
The target of experiment [6] is Calcium/calmodulin-dependent protein kinase type 1 (Homo sapiens) (UniProt Q14012). Nature of the experiment: Selectivity interaction (Kinase panel (Invitrogen)) EUB0000639a CAMK1. To be noted: at 200 nM.
The target in experiment [7] is Tyrosine-protein kinase SYK (Homo sapiens, UniProt P43405). Kind of experiment: Selectivity interaction (ActivX KiNativ screen (kinase selectivity in THP-1 cell lysates)) EUB0000639a SYK. The experiment is classed as subcellular. To be noted: lysate, at 0.01 µM.
Experiment [8] deals with T3, MAP/microtubule affinity-regulating kinase 4 (Homo sapiens) (UniProt Q96L34).
T3 sequence (whole entry): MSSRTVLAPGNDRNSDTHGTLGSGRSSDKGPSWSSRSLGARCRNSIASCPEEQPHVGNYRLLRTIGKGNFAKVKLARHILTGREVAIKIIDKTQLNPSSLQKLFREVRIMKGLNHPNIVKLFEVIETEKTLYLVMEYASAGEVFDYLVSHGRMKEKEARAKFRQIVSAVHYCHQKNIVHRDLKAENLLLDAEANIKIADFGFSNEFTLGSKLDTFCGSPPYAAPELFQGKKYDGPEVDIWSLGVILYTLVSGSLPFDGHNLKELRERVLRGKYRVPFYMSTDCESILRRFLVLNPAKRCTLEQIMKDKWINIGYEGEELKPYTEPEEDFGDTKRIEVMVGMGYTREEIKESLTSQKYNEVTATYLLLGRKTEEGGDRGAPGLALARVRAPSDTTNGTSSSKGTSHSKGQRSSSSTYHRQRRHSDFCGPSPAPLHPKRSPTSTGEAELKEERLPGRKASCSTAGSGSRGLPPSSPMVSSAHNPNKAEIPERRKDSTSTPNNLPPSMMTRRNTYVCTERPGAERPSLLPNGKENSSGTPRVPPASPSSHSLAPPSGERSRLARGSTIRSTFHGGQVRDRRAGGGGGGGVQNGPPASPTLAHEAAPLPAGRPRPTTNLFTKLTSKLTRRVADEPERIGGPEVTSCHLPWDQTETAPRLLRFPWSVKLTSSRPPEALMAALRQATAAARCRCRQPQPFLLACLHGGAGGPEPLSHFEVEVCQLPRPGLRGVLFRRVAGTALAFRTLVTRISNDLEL
Nature of the experiment: Selectivity interaction (Kinase panel (DSF assay)) EUB0001559a MARK4.

For experiment [9], the target named is Cyclin-dependent kinase 16 (Homo sapiens) (UniProt Q00536). To be noted: at 10 µM.
In experiment [10] the target is Mitogen-activated protein kinase 10 (Homo sapiens, UniProt P53779). Nature of the experiment: Selectivity interaction (KinomeScan (DiscoverX)) EUB0000618a MAPK10. Particulars: at 10 µM.

The structures appear in SMILES notation.

Sequence of Calcium/calmodulin-dependent protein kinase type 1 (Homo sapiens) (Q14012 whole entry, looked up): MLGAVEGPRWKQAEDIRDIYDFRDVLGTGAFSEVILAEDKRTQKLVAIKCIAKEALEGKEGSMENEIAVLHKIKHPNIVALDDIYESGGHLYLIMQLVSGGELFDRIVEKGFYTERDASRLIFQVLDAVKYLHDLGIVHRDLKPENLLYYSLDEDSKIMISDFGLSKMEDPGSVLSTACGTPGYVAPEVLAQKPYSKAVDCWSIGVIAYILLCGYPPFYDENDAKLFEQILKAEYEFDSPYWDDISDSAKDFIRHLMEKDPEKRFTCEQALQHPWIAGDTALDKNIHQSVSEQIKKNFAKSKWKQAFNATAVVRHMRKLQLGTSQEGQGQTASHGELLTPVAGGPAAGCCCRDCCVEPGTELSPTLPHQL
Sequence of Myosin-IIIa (Homo sapiens) (Q8NEV4 whole entry): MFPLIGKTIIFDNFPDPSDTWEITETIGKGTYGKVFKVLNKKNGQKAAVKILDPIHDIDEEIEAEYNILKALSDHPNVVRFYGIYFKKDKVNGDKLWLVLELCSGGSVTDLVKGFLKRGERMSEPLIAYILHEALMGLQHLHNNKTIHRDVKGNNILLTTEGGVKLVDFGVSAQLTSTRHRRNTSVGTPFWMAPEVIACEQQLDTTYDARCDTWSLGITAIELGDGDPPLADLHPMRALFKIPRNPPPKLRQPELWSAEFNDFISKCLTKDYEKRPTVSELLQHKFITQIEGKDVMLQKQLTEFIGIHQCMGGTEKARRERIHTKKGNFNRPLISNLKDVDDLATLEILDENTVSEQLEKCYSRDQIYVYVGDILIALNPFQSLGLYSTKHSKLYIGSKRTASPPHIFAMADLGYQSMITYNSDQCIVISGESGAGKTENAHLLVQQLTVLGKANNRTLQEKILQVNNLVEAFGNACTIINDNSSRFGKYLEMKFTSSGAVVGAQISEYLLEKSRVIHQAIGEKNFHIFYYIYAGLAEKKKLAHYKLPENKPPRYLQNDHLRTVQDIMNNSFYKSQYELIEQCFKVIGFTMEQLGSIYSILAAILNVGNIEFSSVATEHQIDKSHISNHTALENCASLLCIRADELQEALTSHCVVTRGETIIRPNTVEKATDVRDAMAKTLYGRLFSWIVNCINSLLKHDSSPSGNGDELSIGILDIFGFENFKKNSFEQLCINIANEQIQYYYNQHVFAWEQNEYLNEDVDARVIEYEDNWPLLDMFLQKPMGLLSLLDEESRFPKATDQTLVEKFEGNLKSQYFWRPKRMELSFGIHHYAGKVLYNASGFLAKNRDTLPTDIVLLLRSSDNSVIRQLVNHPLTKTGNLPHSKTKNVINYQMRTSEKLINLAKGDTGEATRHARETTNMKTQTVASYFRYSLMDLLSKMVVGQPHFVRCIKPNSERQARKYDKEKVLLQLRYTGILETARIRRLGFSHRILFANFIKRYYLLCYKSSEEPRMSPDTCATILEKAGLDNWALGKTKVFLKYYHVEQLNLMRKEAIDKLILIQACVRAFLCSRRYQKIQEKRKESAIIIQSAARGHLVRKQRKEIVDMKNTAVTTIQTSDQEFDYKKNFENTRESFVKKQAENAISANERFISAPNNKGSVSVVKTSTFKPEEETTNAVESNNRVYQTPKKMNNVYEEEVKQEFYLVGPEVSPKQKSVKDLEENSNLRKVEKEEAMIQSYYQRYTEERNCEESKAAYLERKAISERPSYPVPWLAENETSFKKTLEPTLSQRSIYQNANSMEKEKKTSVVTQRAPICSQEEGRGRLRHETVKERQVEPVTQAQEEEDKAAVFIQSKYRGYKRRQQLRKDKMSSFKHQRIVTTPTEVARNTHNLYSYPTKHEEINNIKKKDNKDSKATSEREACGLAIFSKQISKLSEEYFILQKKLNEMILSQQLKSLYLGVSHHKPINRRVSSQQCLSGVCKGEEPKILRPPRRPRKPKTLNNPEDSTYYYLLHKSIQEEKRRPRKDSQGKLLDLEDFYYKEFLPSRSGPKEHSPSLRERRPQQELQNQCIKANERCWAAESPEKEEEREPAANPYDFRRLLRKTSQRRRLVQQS
Sequence of Tyrosine-protein kinase ABL1 (Homo sapiens), P00519 [F317L] (P00519 whole entry F317L): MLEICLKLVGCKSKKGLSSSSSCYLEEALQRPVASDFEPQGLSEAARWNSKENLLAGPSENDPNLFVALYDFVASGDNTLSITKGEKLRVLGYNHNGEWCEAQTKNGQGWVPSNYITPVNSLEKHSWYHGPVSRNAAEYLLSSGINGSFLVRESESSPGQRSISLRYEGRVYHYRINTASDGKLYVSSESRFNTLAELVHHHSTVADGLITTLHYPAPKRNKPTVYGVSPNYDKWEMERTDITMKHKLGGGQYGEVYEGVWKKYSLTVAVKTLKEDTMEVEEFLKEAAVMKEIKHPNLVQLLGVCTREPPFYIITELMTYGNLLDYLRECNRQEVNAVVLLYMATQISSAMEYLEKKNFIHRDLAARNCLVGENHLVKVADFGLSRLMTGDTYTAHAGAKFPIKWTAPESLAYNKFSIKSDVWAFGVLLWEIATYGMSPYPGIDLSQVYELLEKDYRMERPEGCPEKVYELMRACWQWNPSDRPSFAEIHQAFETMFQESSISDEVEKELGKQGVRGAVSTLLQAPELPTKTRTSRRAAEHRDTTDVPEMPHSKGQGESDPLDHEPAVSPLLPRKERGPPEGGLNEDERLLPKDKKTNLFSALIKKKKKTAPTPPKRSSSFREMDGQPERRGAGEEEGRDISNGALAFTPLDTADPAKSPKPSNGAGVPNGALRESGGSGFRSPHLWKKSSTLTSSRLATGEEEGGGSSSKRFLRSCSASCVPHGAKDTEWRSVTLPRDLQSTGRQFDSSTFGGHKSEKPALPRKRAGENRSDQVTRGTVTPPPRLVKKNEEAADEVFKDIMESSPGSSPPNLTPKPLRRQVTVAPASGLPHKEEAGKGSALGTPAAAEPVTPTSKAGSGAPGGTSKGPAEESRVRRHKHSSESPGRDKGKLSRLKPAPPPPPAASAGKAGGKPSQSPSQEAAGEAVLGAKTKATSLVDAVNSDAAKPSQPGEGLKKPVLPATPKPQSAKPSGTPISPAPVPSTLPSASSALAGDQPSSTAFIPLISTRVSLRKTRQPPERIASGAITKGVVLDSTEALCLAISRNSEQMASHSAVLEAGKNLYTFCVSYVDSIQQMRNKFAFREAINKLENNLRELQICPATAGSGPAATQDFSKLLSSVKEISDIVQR
Sequence of Mitogen-activated protein kinase 10 (P53779 whole entry): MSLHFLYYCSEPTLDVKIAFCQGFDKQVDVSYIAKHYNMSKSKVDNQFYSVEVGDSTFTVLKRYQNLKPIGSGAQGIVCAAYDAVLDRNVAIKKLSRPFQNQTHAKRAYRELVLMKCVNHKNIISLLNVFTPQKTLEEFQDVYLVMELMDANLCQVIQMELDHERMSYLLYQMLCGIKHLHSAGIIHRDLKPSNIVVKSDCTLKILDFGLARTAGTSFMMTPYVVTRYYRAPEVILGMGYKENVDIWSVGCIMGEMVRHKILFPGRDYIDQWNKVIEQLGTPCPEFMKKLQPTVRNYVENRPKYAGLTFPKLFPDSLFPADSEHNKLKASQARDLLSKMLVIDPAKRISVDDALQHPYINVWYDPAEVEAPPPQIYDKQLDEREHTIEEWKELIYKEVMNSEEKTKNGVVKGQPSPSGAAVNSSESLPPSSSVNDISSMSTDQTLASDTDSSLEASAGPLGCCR
Sequence of Cyclin-dependent kinase 16 (Homo sapiens) (Q00536 whole entry): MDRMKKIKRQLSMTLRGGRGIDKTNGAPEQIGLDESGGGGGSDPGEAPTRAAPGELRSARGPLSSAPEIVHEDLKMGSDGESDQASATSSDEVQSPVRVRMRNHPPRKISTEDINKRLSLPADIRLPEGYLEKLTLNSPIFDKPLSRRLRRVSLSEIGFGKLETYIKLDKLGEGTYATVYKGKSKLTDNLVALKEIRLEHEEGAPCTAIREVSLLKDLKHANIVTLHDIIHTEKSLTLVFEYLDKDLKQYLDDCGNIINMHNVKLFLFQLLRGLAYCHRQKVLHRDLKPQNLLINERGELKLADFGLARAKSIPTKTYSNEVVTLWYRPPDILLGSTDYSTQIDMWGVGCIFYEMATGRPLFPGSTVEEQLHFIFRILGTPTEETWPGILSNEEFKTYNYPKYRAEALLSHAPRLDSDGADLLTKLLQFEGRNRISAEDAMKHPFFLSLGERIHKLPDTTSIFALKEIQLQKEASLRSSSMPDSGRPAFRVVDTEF

`Cc1cc([C@@H](C)Nc2ccccc2C(=O)O)c2nc(N3CCOCC3)cc(=O)n2c1` [AZD-6482] came in with a % of control in experiment [1] of 97%.
In turn, `Nc1cnc(N2CCc3cc(S(=O)(=O)Nc4c(F)cc(Cl)cc4F)cc(N4CCCC4=O)c32)nc1` [TP-020n] registered a % of control in [2] of 84%.
For the compound `Cc1cc(CN)cc(C)c1-c1ncn(C)c1-c1cncn1C`, the % activity was > 90% in experiment [3] (at 1 µM) and > 80% in experiment [3] (at 10 µM).
For `C=CC(=O)Nc1cc(-n2c(=O)ccc3cnc4ccc(-c5ccc(NS(C)(=O)=O)cc5)cc4c32)ccc1C`, the % of control in experiment [4] is 100%.
`CNC(=O)Nc1ccc(-c2nc(N3CC4CCC(C3)O4)c3cnn(C4CCC5(CC4)OCCO5)c3n2)cc1` returned a % of control in [5] of 100%.
As to `CC[C@@H]1[C@H](F)C(=O)N[C@@H]1COc1nccc2cc(C(N)=O)c(OC)cc12` [ZIMLOVISERTIB], the % of inhibition in experiment [6] is -15.3%; in experiment [7], 7.1%.
In [8], `CN(C(=O)c1cnn2cccnc12)c1cc2c(cc1N1CCOCC1)C(=O)N(C[C@@H](F)C(C)(C)O)C2` had a dTM of 0.9 K.
Compound `COCC(=O)NC/C=C/c1ccc2ncnc(Nc3ccc(Oc4ccc(C)nc4)c(C)c3)c2c1` [CP-724714] displayed a % of control in experiment [9] of 74%.
For the compound `O[C@H]1CC[C@H](Nc2ncc3nc(Nc4c(F)cc(F)cc4F)n([C@H]4CCOC4)c3n2)CC1`, in experiment [10], the % of control was found to be 0%.
